Test results as given in the supplement of paper PMC10307832.

Experiments:
Assay in all cases: relative viability (nuclei count vs DMSO), 5 days (fraction); higher = more cells survive
CX-5461 + Luminespib = compound: Cc1cnc(CNC(=O)c2c(=O)c3ccc(N4CCCN(C)CC4)nc3n3c2sc2ccccc23)cn1 [CX-5461] + CCNC(=O)c1noc(-c2cc(C(C)C)c(O)cc2O)c1-c1ccc(CN2CCOCC2)cc1 [Luminespib] (partner 0.01 µM)
Method in brief: (§1)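 For relative viability, nuclei counts in treated wells were divided by those in vehicle wells. Lung cancer cell lines had been pin-tool dosed in 1536-well plates the day after seeding and cultured for 5 days, then fixed and stained in one step (final 0.05% Triton X-100, 1% formaldehyde, 1 ug/ml Hoechst) and imaged at 4×. Doses were one drug alone or a fixed anchor-drug dose plus five library-drug doses (not always all listed) in √10 steps, and values are duplicate-plate medians.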

CX-5461 + Vorinostat = compound: Cc1cnc(CNC(=O)c2c(=O)c3ccc(N4CCCN(C)CC4)nc3n3c2sc2ccccc23)cn1 [CX-5461] + O=C(CCCCCCC(=O)Nc1ccccc1)NO [Vorinostat] (partner 1 µM)
Method in brief: as §1

CX-5461 + Bortezomib = compound: Cc1cnc(CNC(=O)c2c(=O)c3ccc(N4CCCN(C)CC4)nc3n3c2sc2ccccc23)cn1 [CX-5461] + CC(C)C[C@H](NC(=O)[C@H](Cc1ccccc1)NC(=O)c1cnccn1)B(O)O [Bortezomib] (partner 0.002 µM)
Method in brief: as §1

CX-5461 + Crizotinib = compound: Cc1cnc(CNC(=O)c2c(=O)c3ccc(N4CCCN(C)CC4)nc3n3c2sc2ccccc23)cn1 [CX-5461] + C[C@@H](Oc1cc(-c2cnn(C3CCNCC3)c2)cnc1N)c1c(Cl)ccc(F)c1Cl [Crizotinib] (partner 1 µM)
Method in brief: as §1

UMC-11 showed a relative viability (CX-5461 + Luminespib; first compound 0.01 µM) of 1.01, a relative viability (CX-5461 + Luminespib; first compound 0.03162 µM) of 0.931 and a relative viability (CX-5461 + Luminespib; first compound 0.1 µM) of 0.965. For the same cell line, the relative viability (CX-5461 + Luminespib; first compound 0.3162 µM) was 0.951, the relative viability (CX-5461 + Luminespib; first compound 1 µM) was 0.423 and the relative viability (CX-5461 + Vorinostat; first compound 0.01 µM) was 0.338. The relative viability (CX-5461 + Vorinostat; first compound 0.03162 µM) was 0.35, the relative viability (CX-5461 + Vorinostat; first compound 0.1 µM) was 0.384 and the relative viability (CX-5461 + Vorinostat; first compound 0.3162 µM) was 0.398. It also gave a relative viability (CX-5461 + Vorinostat; first compound 1 µM) of 0.202, a relative viability (CX-5461 + Bortezomib; first compound 0.01 µM) of 1.01 and a relative viability (CX-5461 + Bortezomib; first compound 0.03162 µM) of 0.707. The relative viability (CX-5461 + Bortezomib; first compound 0.1 µM) was 0.514, the relative viability (CX-5461 + Bortezomib; first compound 0.3162 µM) was 0.797 and the relative viability (CX-5461 + Bortezomib; first compound 1 µM) was 0.198. The relative viability (CX-5461 + Crizotinib; first compound 0.01 µM) was 0.63, the relative viability (CX-5461 + Crizotinib; first compound 0.03162 µM) was 0.655 and the relative viability (CX-5461 + Crizotinib; first compound 0.1 µM) was 0.694. For the same cell line, the relative viability (CX-5461 + Crizotinib; first compound 0.3162 µM) was 0.607 and the relative viability (CX-5461 + Crizotinib; first compound 1 µM) was 0.153.
